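All cell lines were grown in 96-well plates and treated with compound for 48 hours. TGI: total growth inhibition.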
Columns and labels:
Assay in all cases: growth of human tumour cells (NCI), 48 h
[1] = tested on: SNB-19 CNS
[2] = tested on: IGROV1 ovarian
[3] = tested on: OVCAR-4 ovarian
[4] = tested on: HOP-62 NSCLC
[5] = tested on: HCT-116 colon
[6] = tested on: K-562 leukemia
[7] = tested on: MDA-MB-435
[8] = tested on: SF-295 CNS
[9] = tested on: HT29 colon
[10] = tested on: TK-10 renal
[11] = tested on: RXF 393 renal
[12] = tested on: NCI-H226 lung
[13] = tested on: SK-MEL-28 melanoma
[14] = tested on: NCI/ADR-RES ovarian
[15] = tested on: OVCAR-5 ovarian
[16] = tested on: BT-549 breast
[17] = tested on: CAKI-1 renal
[18] = tested on: CCRF-CEM leukemia
[19] = tested on: SK-MEL-2 melanoma
[20] = tested on: PC-3 prostate
[21] = tested on: ACHN renal
[22] = tested on: 786-0 renal
[23] = tested on: HS 578T breast
[24] = tested on: M14 melanoma
[25] = tested on: KM12 colon
[26] = tested on: LOX IMVI melanoma
[27] = tested on: RPMI-8226 leukemia
[28] = tested on: EKVX NSCLC
[29] = tested on: SW-620 colon
[30] = tested on: SNB-75 CNS
[31] = tested on: UACC-257 melanoma
[32] = tested on: SK-OV-3 ovarian
[33] = tested on: MOLT-4 leukemia
[34] = tested on: HCT-15 colon
[35] = tested on: SK-MEL-5 melanoma
[36] = tested on: SF-268 CNS
[37] = tested on: OVCAR-8 ovarian
[38] = tested on: SN12C renal
[39] = tested on: NCI-H460 lung
[40] = tested on: MALME-3M melanoma
[41] = tested on: HCC-2998 colon
[42] = tested on: COLO 205 colon
[43] = tested on: UACC-62 melanoma
[44] = tested on: OVCAR-3 ovarian
[45] = tested on: UO-31 renal
[46] = tested on: SR leukemia
[47] = tested on: NCI-H522 lung
[48] = tested on: A549 NSCLC
[49] = tested on: NCI-H23 lung
[50] = tested on: U251 CNS
[51] = tested on: MDA-N
[52] = tested on: MDA-MB-231 breast
[53] = tested on: SF-539 CNS
[54] = tested on: DU-145 prostate
[55] = tested on: HOP-92 NSCLC
[56] = tested on: T-47D breast
[57] = tested on: MCF7 breast
[58] = tested on: HL-60(TB) leukemia
[59] = tested on: A498 renal

In the case of `O=C1NCCCNCCCNCCCNC(=O)c2cccc1n2`, the TGI [1] is reported as > 100 µM, the TGI [2] is reported as > 100 µM and the TGI [3] is reported as > 100 µM. The TGI [4] was > 100 µM, the TGI [5] was > 100 µM and the TGI [6] was > 100 µM. The TGI [7] was > 100 µM, the TGI [8] was > 100 µM and the TGI [9] was > 100 µM. For the same compound, the TGI [10] was > 100 µM, the TGI [11] was > 100 µM and the TGI [12] was > 100 µM. For the same compound, the TGI [13] was > 100 µM, the TGI [14] was > 100 µM and the TGI [15] was > 100 µM. The TGI [16] was > 100 µM, the TGI [17] was > 100 µM and the TGI [18] was > 100 µM. For the same compound, the TGI [19] was > 100 µM, the TGI [20] was > 100 µM and the TGI [21] was > 100 µM. For the same compound, the TGI [22] was > 100 µM, the TGI [23] was > 100 µM and the TGI [24] was > 100 µM. For the same compound, the TGI [25] was > 100 µM, the TGI [26] was > 100 µM and the TGI [27] was > 100 µM. The TGI [28] was > 100 µM, the TGI [29] was > 100 µM and the TGI [30] was > 100 µM. The TGI [31] was > 100 µM, the TGI [32] was > 100 µM and the TGI [33] was > 100 µM. For the same compound, the TGI [34] was > 100 µM, the TGI [35] was > 100 µM and the TGI [36] was > 100 µM. The TGI [37] was > 100 µM, the TGI [38] was > 100 µM and the TGI [39] was > 100 µM. For the same compound, the TGI [40] was > 100 µM, the TGI [41] was > 100 µM and the TGI [42] was > 100 µM. For the same compound, the TGI [43] was > 100 µM, the TGI [44] was > 100 µM and the TGI [45] was > 100 µM. For the same compound, the TGI [46] was > 100 µM, the TGI [47] was > 100 µM and the TGI [48] was > 100 µM. For the same compound, the TGI [49] was > 100 µM, the TGI [50] was > 100 µM and the TGI [51] was > 100 µM. For the same compound, the TGI [52] was > 100 µM and the TGI [53] was > 100 µM.
`COc1cc(/C=C2\CN(C)CC3=C2NC(=S)NC3c2cc(OC)c(OC)c(OC)c2)cc(OC)c1OC` (stereo not drawn) was tested, and the TGI [2] was > 100 µM, the TGI [3] was > 100 µM and the TGI [4] was > 100 µM. For the same compound, the TGI [8] was > 100 µM, the TGI [9] was > 100 µM and the TGI [54] was > 100 µM. For the same compound, the TGI [14] was > 100 µM, the TGI [19] was > 100 µM and the TGI [20] was > 100 µM. The TGI [21] was > 100 µM, the TGI [22] was > 100 µM and the TGI [23] was > 100 µM. For the same compound, the TGI [24] was > 100 µM, the TGI [26] was > 100 µM and the TGI [28] was > 100 µM. For the same compound, the TGI [29] was > 100 µM, the TGI [30] was > 100 µM and the TGI [31] was > 100 µM. For the same compound, the TGI [32] was > 100 µM, the TGI [55] was > 100 µM and the TGI [33] was > 100 µM. For the same compound, the TGI [34] was > 100 µM, the TGI [35] was 65.7 µM and the TGI [36] was > 100 µM. For the same compound, the TGI [37] was > 100 µM, the TGI [38] was > 100 µM and the TGI [39] was > 100 µM. The TGI [40] was > 100 µM, the TGI [56] was > 100 µM and the TGI [42] was > 100 µM. The TGI [43] was > 100 µM, the TGI [44] was > 100 µM and the TGI [46] was > 100 µM. For the same compound, the TGI [47] was > 100 µM, the TGI [48] was > 100 µM and the TGI [51] was > 100 µM. The TGI [52] was > 100 µM.
`C/C=C(/C)C(=O)O[C@H]1C[C@@H]2[C@@H](O)c3occ(C)c3C[C@]2(C)[C@@H](C)C1` showed a TGI [1] of 31.5 µM, a TGI [2] of 30.8 µM and a TGI [3] of 32.6 µM. The TGI [4] was 31.3 µM, the TGI [5] was 28.5 µM and the TGI [6] was 28.5 µM. It also gave a TGI [7] of 33 µM, a TGI [57] of 38.9 µM and a TGI [8] of 28.9 µM. The TGI [9] was 31.1 µM, the TGI [54] was 28.2 µM and the TGI [10] was 33.8 µM. It also gave a TGI [11] of 28.9 µM, a TGI [12] of 29.2 µM and a TGI [13] of 29.9 µM. The TGI [14] was 28.3 µM, the TGI [15] was 34.8 µM and the TGI [17] was 33.3 µM. It also gave a TGI [18] of 47.4 µM, a TGI [20] of 35.2 µM and a TGI [21] of 31 µM. It also gave a TGI [22] of 29.7 µM, a TGI [23] of 66.7 µM and a TGI [24] of 29.9 µM. It also gave a TGI [25] of 30.2 µM, a TGI [26] of 32.8 µM and a TGI [27] of 76.5 µM. The TGI [28] was 30.5 µM, the TGI [29] was 32.6 µM and the TGI [31] was 23.2 µM. It also gave a TGI [32] of 30.9 µM, a TGI [55] of 31.4 µM and a TGI [33] of 37.1 µM. It also gave a TGI [34] of 44.3 µM, a TGI [35] of 22.6 µM and a TGI [36] of 31 µM. For the same compound, the TGI [37] was 36.9 µM, the TGI [38] was 27.3 µM and the TGI [39] was 46.8 µM. The TGI [40] was 29.2 µM, the TGI [41] was 34 µM and the TGI [56] was 30 µM. It also gave a TGI [42] of 30.2 µM, a TGI [43] of 27.2 µM and a TGI [44] of 31.1 µM. For the same compound, the TGI [46] was 43.8 µM, the TGI [47] was 30.6 µM and the TGI [49] was 33.1 µM. It also gave a TGI [50] of 28.3 µM, a TGI [51] of 41.7 µM and a TGI [58] of 28.9 µM. It also gave a TGI [52] of 29.2 µM and a TGI [53] of 31.4 µM.
For `CCCCCCCCCCN(CCCCCCCCCC)C(=O)COc1c2cc(C(C)(C)C)cc1Cc1cc(C(C)(C)C)cc(c1OCC(=O)N(CCCCCCCCCC)CCCCCCCCCC)Cc1cc(C(C)(C)C)cc(c1OCC(=O)N(CCCCCCCCCC)CCCCCCCCCC)Cc1cc(C(C)(C)C)cc(c1OCC(=O)N(CCCCCCCCCC)CCCCCCCCCC)C2`, the TGI [1] was 22.1 µM, the TGI [2] was 24.8 µM and the TGI [3] was 22.4 µM. It also gave a TGI [4] of 31.4 µM, a TGI [5] of 5.6 µM and a TGI [6] of 4.87 µM. For the same compound, the TGI [7] was 25.6 µM, the TGI [57] was 6.95 µM and the TGI [8] was 21.7 µM. For the same compound, the TGI [9] was 12.3 µM, the TGI [54] was 31.8 µM and the TGI [10] was 33.5 µM. It also gave a TGI [11] of 22.3 µM, a TGI [12] of 36.3 µM and a TGI [13] of 24.1 µM. The TGI [14] was 29.2 µM, the TGI [15] was 26.1 µM and the TGI [18] was 14.1 µM. It also gave a TGI [19] of 20.4 µM, a TGI [20] of 21.8 µM and a TGI [21] of 28.1 µM. It also gave a TGI [22] of 23.3 µM, a TGI [24] of 8.01 µM and a TGI [25] of 24.5 µM. For the same compound, the TGI [26] was 23.7 µM, the TGI [28] was 25.2 µM and the TGI [29] was 14.2 µM. The TGI [30] was 32.5 µM, the TGI [31] was 29.6 µM and the TGI [32] was 27.6 µM. The TGI [55] was 11.4 µM, the TGI [59] was 29.1 µM and the TGI [33] was 6.34 µM. It also gave a TGI [34] of 21.7 µM, a TGI [35] of 26.4 µM and a TGI [36] of 29.9 µM. The TGI [37] was 16.6 µM, the TGI [38] was 26.2 µM and the TGI [39] was 26.2 µM. For the same compound, the TGI [40] was 28.7 µM, the TGI [41] was 22.3 µM and the TGI [56] was 32.3 µM. For the same compound, the TGI [42] was 29.2 µM, the TGI [43] was 25.3 µM and the TGI [44] was 29.1 µM. It also gave a TGI [45] of 37.1 µM, a TGI [46] of 6.06 µM and a TGI [47] of 10.2 µM. For the same compound, the TGI [48] was 30.4 µM, the TGI [49] was 9.16 µM and the TGI [50] was 23.2 µM. For the same compound, the TGI [51] was 24.9 µM, the TGI [58] was 30.9 µM and the TGI [52] was 33.2 µM. For the same compound, the TGI [53] was 13.7 µM.

Source: PubChem BioAssay (NCI)
